Measurements published in patent US8716312B2, “Inhibitors of diacylglycerol acyltransferase” (Merck Sharp & Dohme Corporation, priority 2008, dated 2014).

Biological target: T1, human DGAT1 enzyme (Homo sapiens, UniProt O75907)
T1 sequence (O75907 1-488): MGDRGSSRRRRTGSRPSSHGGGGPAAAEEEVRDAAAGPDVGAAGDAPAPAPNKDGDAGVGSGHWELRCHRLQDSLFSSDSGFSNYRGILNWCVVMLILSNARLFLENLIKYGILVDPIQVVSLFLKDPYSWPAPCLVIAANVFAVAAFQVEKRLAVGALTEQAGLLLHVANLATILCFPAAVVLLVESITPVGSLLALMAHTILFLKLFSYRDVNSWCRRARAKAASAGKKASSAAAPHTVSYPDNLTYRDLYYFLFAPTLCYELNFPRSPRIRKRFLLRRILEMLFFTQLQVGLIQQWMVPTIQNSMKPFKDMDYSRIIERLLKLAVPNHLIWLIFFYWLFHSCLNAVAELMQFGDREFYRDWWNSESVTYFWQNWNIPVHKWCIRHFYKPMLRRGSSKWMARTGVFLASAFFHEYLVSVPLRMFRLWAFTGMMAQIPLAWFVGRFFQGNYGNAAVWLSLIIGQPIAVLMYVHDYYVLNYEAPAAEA
Assay: in vitro DGAT1 inhibition assay (microsomes, [14C]-palmitoyl-CoA, SPA beads)
Procedure: The in vitro assay to identify DGAT1 inhibitors uses human DGAT1 enzyme expressed in Sf9 insect cells prepared as microsomes. The reaction is initiated by the addition of the combined substrates 1,2-dioleoyl-sn-glycerol and [^14C]-palmitoyl-Co A and incubated with test compounds and microsomal membranes for 2 hours at room temperature. The assay is stopped by adding 0.5 mg wheat germ agglutinin beads in assay buffer with 1% Brij-35 and 1% 3-cholamidopropyldimethyl-ammonio-1-propane sulfonate. Plates are sealed with TopSeal and incubated for 18 hours to allow the radioactive triglyceride product to come into proximity with the bead. Plates are read on a TopCount instrument.
Percent inhibition was calculated as the percent of (test compound inhibition minus non-specific binding) relative to (total binding minus non-specific binding). IC50 values were determined by curve fitting the data to a Sigmoidal dose-response in GraphPad Prism utilizing the following equation: Y=A+(B−A)/(1+10^((Log IC50−X))), where A and B are the bottom and top of the curve (highest and lowest inhibition), respectively, and X is the logarithm of concentration.

| Structure (SMILES) | IC50 |
| --- | --- |
| CC1CCCN(c2nc(C(F)(F)F)c(C(=O)Nc3ccc(N4CCCN(C(=O)[C@H]5CC[C@@H](C(=O)O)CC5)CC4)nc3)o2)C1 (some centres unmarked) [Compound 185, (1s,4s)-4-(4-(5-(2-(3-Methylpiperidin-1-yl)-4-(trifluoromethyl)oxazole-5-carboxamido)pyridin-2-yl)-1,4-diazepane-1-carbonyl)cyclohexanecarboxylic acid] | 101 to 500 nM |
| CC1CCCN(c2nc(C(F)(F)F)c(C(=O)Nc3ccc(NC4CN(C(=O)Nc5ccccc5F)C4)nc3)o2)C1 (centres unmarked) [Compound 223, N-(6-(1-(2-fluorophenylcarbamoyl)azetidin-3-ylamino)pyridin-3-yl)-2-(3-methylpiperidin-1-yl)-4-(trifluoromethyl)oxazole-5-carboxamide] | 101 to 500 nM |
